Test results as given in patent US20040067915A1, “Method to treat cardiofibrosis with a combination of an angiotensin II antagonist and spironolactone” (G.D. Searle & Co., priority 1995, published 2004).
Where two headings read alike, the source gives them in different places.

What was measured:
pressor response to AII = experiment: Assay C: In vivo Intragastric Pressor Assay Response for AII Antagonists; settings: rat; for inhibition at 3 mg/kg: po, AII pressor response
Description: Assay C: In vivo Intragastric Pressor Assay Response for All Antagonists
Male Sprague-Dawley rats weighing 225-300 grams were anesthetized with methohexital (30 mg/kg, i.p.) and catheters were implanted into the femoral artery and vein. The catheters were tunneled subcutaneously to exit dorsally, posterior to the head and between the scapulae. The catheters were filled with heparin (1000 units/ml of saline). The rats were returned to their cage and allowed regular rat chow and water ad libitum. After full recovery from surgery (3-4 days), rats were placed in Lucite holders and the arterial line was connected to a pressure transducer. Arterial pressure was recorded on a Gould polygraph (mmHg). Angiotensin II was administered as a 30 ng/kg bolus via the venous catheter delivered in a 50 μl volume with a 0.2 ml saline flush. The pressor response in mm Hg was measured by the difference from pre-injection arterial pressure to the maximum pressure achieved. The AII injection was repeated every 10 minutes until three consecutive injections yielded responses within 4 mmHg of each other. These three responses were then averaged and represented the control response to AII. The test compound was suspended in 0.5% methylcellulose in water and was administered by gavage. The volume administered was 2 ml/kg body weight. The standard dose was 3 mg/kg. Angiotensin II bolus injections were given at 30, 45, 60, 75, 120, 150, and 180 minutes after gavage. The pressor response to AII was measured at each time point. The rats were then returned to their cage for future testing. A minimum of 3 days was allowed between tests. Percent inhibition was calculated for each time point following gavage by the following formula: [(Control Response—Response at time point)/Control Response]×100.
3Assay C: In vivo Pressor Response

[1] = target: angiotensin II AT1 receptor; experiment: Assay A: Angiotensin II Binding Activity (125I-AII displacement, rat uterine membrane preparation)
Description: Assay A: Antiotensin II Binding Activity
Compounds of the invention were tested for ability to bind to the smooth muscle angiotensin II receptor using a rat uterine membrane preparation. […] Rat uterine membranes were prepared from fresh tissue. All procedures were carried out at 4° C. Uteri were stripped of fat and homogenized in phosphate-buffered saline at pH 7.4 containing 5 mM EDTA. The homogenate was centrifuged at 1500×g for 20 min., and the supernatant was recentrifuged at 100,000×g for 60 min. The pellet was resuspended in buffer consisting of 2 mM EDTA and 50 mM Tris-HCl (pH 7.5) to a final protein concentration of 4 mg/ml. […] The reaction was initiates by the addition of membrane protein and the mixture was incubated at 25° C. for 60 min. The incubation was terminated with ice-cold 50 mM Tris-HCl (pH 7.5) and the mixture was filtered to separate membrane-bound labelled peptide from the free ligand. The incubation tube and filter were washed with ice-cold buffer. Filters were assayed for radioactivity in a Micromedic gamma counter. Nonspecific binding was defined as binding in the presence of 10 μM of unlabelled AII. Specific binding was calculated as total binding minus nonspecific binding. […] Binding data were analyzed by a nonlinear least-squares curve fitting program.
1Assay A: Angiotensin II Binding Activity

[2] = target: T1, angiotensin II receptor (rabbit aortic rings) (Oryctolagus cuniculus, UniProt P34976); experiment: Assay B: In vitro Vascular Smooth Muscle Response for AII (rabbit aortic rings, pA2); type: cell-based; settings: two determinations given as a/b
T1 construct: The thoracic aorta was removed, cleaned of adherent fat and connective tissue and then cut into 3-mm ring segments; from tissue; host or cells: rabbit thoracic aorta rings, endothelium removed
T1 sequence (P34976 1-359): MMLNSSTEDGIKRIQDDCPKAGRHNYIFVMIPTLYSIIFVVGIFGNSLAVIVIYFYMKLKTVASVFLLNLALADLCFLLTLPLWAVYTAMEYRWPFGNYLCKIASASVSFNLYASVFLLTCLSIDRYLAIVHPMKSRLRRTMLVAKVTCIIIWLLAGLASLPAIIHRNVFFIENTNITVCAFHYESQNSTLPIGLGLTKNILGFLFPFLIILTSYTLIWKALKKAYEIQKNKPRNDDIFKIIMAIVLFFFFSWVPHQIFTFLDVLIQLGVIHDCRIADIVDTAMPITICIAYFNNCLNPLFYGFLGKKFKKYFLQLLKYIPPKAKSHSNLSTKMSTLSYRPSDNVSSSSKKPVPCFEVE
Description: Assay B: In vitro Vascular Smooth Muscle-response for AII
The compounds of the invention were tested for antagonist activity in rabbit aortic rings. Male New Zealand white rabbits (2-2.5 kg) were sacrificed using an overdose of pentobarbital and exsanguinated via the carotid arteries. The thoracic aorta was removed, cleaned of adherent fat and connective tissue and then cut into 3-mm ring segments. The endothelium was removed from the rings by gently sliding a rolled-up piece of filter paper into the vessel lumen. The rings were then mounted in a water-jacketed tissue bath, maintained at 37° C., between moveable and fixed ends of a stainless steel wire with the moveable end attached to an FT03 Grass transducer coupled to a Model 7D Grass Polygraph for recording isometric force responses. […] The preparations were equilibrated for one hour before approximately one gram of passive tension was placed on the rings. Angiotensin II concentration-response curves were then recorded (3×10^−10 to 1×10^−5 M). Each concentration of AII was allowed to elicit its maximal contraction, and then AII was washed out repeatedly for 30 minutes before rechallenging with a higher concentration of AII. Aorta rings were exposed to the test antagonist at 10^−5 M for 5 minutes before challenging with AII. Adjacent segments of the same aorta ring were used for all concentration-response curves in the presence or absence of the test antagonist. The effectiveness of the test compound was expressed in terms of pA2 values and were calculated according to H. O. Schild [Br. J. Pharmacol. Chemother., 2, 189-206 (1947)]. The pA2 value is […] which increases the EC50 value for AII by a factor of two. Each test antagonist was evaluated in aorta rings from two rabbits.
2Assay B: In vitro Vascular Smooth Muscle Response

[3] = hypertensive patients, continued ACE inhibition; cited from earlier work
angiotensin II = settings: binding experiments, functional assays and in vivo tests; cited from earlier work
[4] = test system: myocardial fibrosis in animal models; settings: cited from earlier work

SMILES: CCCCc1nc(CCCC)n(Cc2ccc(-c3ccccc3-c3nnn[nH]3)cc2)n1 [Compound 3]
- Assay C Duration (pressor response to AII; dose 10 mg/kg): >180 min
- Assay C Duration (pressor response to AII; dose 30 mg/kg): 200^+ min.
- IC50 [1]: 5.4 nM
- Kb [2]: 2 nM

SMILES: CCCCc1nc(CCCC)n(Cc2ccc(-c3ccccc3C(=O)NNS(=O)(=O)C(F)(F)F)cc2)n1 [Compound 5]
- Assay C Duration (pressor response to AII; dose 30 mg/kg): 20 to 30 min
- IC50 [1]: 200 nM

SMILES: CCCCc1nc(Cl)nn1Cc1ccc(-c2ccccc2C(=O)O)cc1 [Compound 6]
- Assay C Duration (pressor response to AII; dose 100 mg/kg): 120 min
- IC50 [1]: 1300 nM

SMILES: CCCCc1nc(Cl)nn1Cc1ccc(-c2ccccc2-c2nnn[nH]2)cc1 [Compound 7]
- Assay C Duration (pressor response to AII; dose 30 mg/kg): 130 min
- IC50 [1]: 84 nM

SMILES: CCCCc1nc(Cl)n(Cc2ccc(-c3ccccc3C(=O)O)cc2)n1 [Compound 8]
- IC50 [1]: 17000 nM

SMILES: CCCCc1nc(Cl)n(Cc2ccc(-c3ccccc3-c3nnn[nH]3)cc2)n1 [Compound 9]
- Assay C Duration (pressor response to AII; dose 30 mg/kg): 75 min
- Assay C Duration (pressor response to AII; dose 100 mg/kg): 130 min
- IC50 [1]: 700 nM

SMILES: CCCCc1nc(C(F)(F)CCC)nn1Cc1ccc(-c2ccccc2-c2nnn[nH]2)cc1 [Compound 10]
- Assay C Duration (pressor response to AII; dose 3 mg/kg): 100 min
- Assay C Duration (pressor response to AII; dose 30 mg/kg): 240 min
- IC50 [1]: 4.9 nM

SMILES: CCCCc1nc(C(F)(F)CCC)n(Cc2ccc(-c3ccccc3-c3nnn[nH]3)cc2)n1 [Compound 11]
- IC50 [1]: 160 nM

SMILES: CCCc1nc(CCC)n(Cc2ccc(-c3ccccc3-c3nnn[nH]3)cc2)n1 [Compound 15]
- IC50 [1]: 16 nM

SMILES: CCCc1nc(CCC(C)C)n(Cc2ccc(-c3ccccc3-c3nnn[nH]3)cc2)n1 [Compound 16]
- IC50 [1]: 6.4 nM

SMILES: CCCCc1nc(-c2ccccc2)nn1Cc1ccc(-c2ccccc2-c2nnn[nH]2)cc1 [Compound 21]
- IC50 [1]: 7 nM

SMILES: CCCCc1cn(CC2CCCCC2)c(=O)n1Cc1ccc(-c2ccccc2-c2nnn[nH]2)nc1 [Compound 205]
- Assay C Duration (pressor response to AII; dose 3 mg/kg): >180 min
- inhibition at 3 mg/kg (pressor response to AII; dose 3 mg/kg): 40%
- IC50 [1]: 20 nM

SMILES: CCCCc1cn(C2C3CC4CC(C3)CC2C4)c(=O)n1Cc1ccc(-c2ccccc2-c2nnn[nH]2)nc1 (stereo not drawn) [Compound 213]
- IC50 [1]: 51 nM

SMILES: CCCCc1nc(CCC)nn1Cc1ccc(-c2ccccc2-c2nnn[nH]2)nc1 [Compound 246]
- IC50 [1]: 72 nM

SMILES: CCCCc1nc(CC(CC)CC)n(Cc2ccc(-c3ccccc3-c3nnn[nH]3)nc2)n1 [Compound 250]
- inhibition at 3 mg/kg (pressor response to AII; dose 3 mg/kg): 0%
- IC50 [1]: 43 nM

SMILES: C[C@H](CS)C(=O)N1CCC[C@H]1C(=O)O [captopril]
- plasma aldosterone [3]: gradual return of plasma aldosterone to baseline levels

SMILES: CCCCc1nc(Cl)c(CC(=O)[O-])n1Cc1ccccc1[N+](=O)[O-].[Na+] [sodium salt of 2-butyl-4-chloro-1-(2-nitrobenzyl)imidazole-5-acetic acid]
- angiotensin II antagonist activity (angiotensin II): specific competitive angiotensin II antagonist activity

SMILES: CCCCc1nc(Cl)c(CC(=O)[O-])n1Cc1ccccc1Cl.[Na+] [sodium salt of 2-n-butyl-4-chloro-1-(2-chlorobenzyl)imidazole-5-acetic acid]
- angiotensin II antagonist activity (angiotensin II): specific competitive angiotensin II antagonist activity

SMILES: CC(=O)S[C@@H]1CC2=CC(=O)CC[C@]2(C)[C@H]2CC[C@@]3(C)[C@@H](CC[C@@]34CCC(=O)O4)[C@H]12 [spironolactone, 17-hydroxy-7α-mercapto-3-oxo-17α-pregn-4-ene-21-carboxylic acid γ-lactone acetate]
- myocardial fibrosis [4]: prevents myocardial fibrosis in animal models
- myocardial fibrosis ([4]; listed as Spironolactone): prevent fibrosis in animal models irrespective of the development of left ventricular hypertrophy and the presence of hypertension
